Assay results reported in patent US6319932A, “Oxazolidinones useful as alpha 1A adrenoceptor antagonists” (Merck & Co., Inc., priority 1999, dated 2001).

How the values were obtained:
[1] = molecular target: T1, human alpha 1a adrenergic receptor (Homo sapiens, UniProt P35348); assay: Screening Assay: Alpha 1a Adrenergic Receptor Binding ([125I]-HEAT competition binding); conditions: membranes of stably transfected human alpha 1a cell line; 100 pM [125I]-HEAT
T1 construct: expressed in transfected cells; host or cells: stably transfected human alpha 1a cell line (ATCC CRL 11140), membranes
T1 sequence (P35348 1-466): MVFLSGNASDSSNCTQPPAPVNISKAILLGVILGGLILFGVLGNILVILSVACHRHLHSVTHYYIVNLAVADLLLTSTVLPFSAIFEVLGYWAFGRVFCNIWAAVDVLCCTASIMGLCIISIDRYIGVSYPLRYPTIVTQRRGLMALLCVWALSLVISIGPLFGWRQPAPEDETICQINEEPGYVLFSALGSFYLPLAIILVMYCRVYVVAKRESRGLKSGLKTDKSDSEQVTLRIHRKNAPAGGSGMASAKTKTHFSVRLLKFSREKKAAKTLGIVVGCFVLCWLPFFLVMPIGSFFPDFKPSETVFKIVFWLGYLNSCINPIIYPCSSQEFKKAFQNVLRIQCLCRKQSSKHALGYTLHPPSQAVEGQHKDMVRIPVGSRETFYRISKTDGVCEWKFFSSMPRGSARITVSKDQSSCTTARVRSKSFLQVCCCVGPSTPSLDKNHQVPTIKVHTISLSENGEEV
Method: Screening Assay: Alpha 1a Adrenergic Receptor Binding
Membranes prepared from the stably transfected human alpha 1a cell line (ATCC CRL 11140) were used to identify compounds that bind to the human alpha 1a adrenergic receptor. These competition binding reactions (total volume=200 μl) contained 50 mM Tris-HCl pH. 7.4, 5 mM EDTA, 150 mM NaCl, 100 pM [^125 I]-HEAT, membranes prepared from the alpha 1a cell line and increasing amounts of unlabeled ligand. Reactions were incubated at room temperature for one hour with shaking. Reactions were filtered onto Whatman GF/C glass fiber filters with a Inotec 96 well cell harvester. Filters were washed three times with ice cold buffer and bound radioactivity was determined (Ki).

[2] = tested on: human alpha 1b adrenergic receptor; assay: Selective Binding Assays, alpha 1b ([125I]-HEAT competition binding); conditions: alpha 1a versus alpha 1b
Method: (§1) Membranes prepared from stably transfected human alpha 1d and alpha 1b cell lines (ATCC CRL 11138 and CRL 11139, respectively) were used to identify compounds that selectively bind to the human alpha 1a adrenergic receptor. These competition binding reactions (total volume=200 μl ) contained 50 mM Tris-HCl pH. 7.4, 5 mM EDTA, 150 mM NaCl, 100 pM [^125 I]-HEAT, membranes prepared from cell lines transfected with the respective alpha 1 subtype expression plasmid and increasing amounts of unlabeled ligand. Reactions were incubated at room temperature for one hour with shaking. Reactions were filtered onto Whatman GF/C glass fiber filters with a Inotec 96 well cell harvester. Filters were washed three times with ice cold buffer and bound radioactivity was determined (Ki).

[3] = tested on: human alpha 1d adrenergic receptor; assay: Selective Binding Assays, alpha 1d ([125I]-HEAT competition binding); conditions: alpha 1a versus alpha 1d
Method: as §1

## N#Cc1ccccc1C1(C#N)CCN(CCCNC(=O)N2C(=O)O[C@@H](C(N)=O)[C@@H]2c2ccc(F)c(F)c2)CC1 [Example 10]
[1]
  Ki: 3.9 nM

## O=C(c1ccccc1)[C@@H]1OC(=O)N(C(=O)NCCCN2CCC(c3ccc(F)cc3)CC2)[C@H]1c1ccc(F)c(F)c1 [Example 11]
[2]
  selectivity in binding to alpha 1a receptors versus alpha 1b receptors: about 27 fold
[3]
  selectivity in binding to alpha 1a receptors versus alpha 1d receptors: about 76 fold
